{"source": "paper PMC9268428", "about": "“Determination of the Highly Sensitive Carboxyl-Graphene Oxide-Based Planar Optical Waveguide Localized Surface Plasmon Resonance Biosensor” (Nanomaterials, 2022)", "molecular_target": "T1, streptavidin (Streptomyces avidinii, UniProt P22629)", "T1 construct": "free analyte in PBS", "T1 sequence (P22629 25-183)": "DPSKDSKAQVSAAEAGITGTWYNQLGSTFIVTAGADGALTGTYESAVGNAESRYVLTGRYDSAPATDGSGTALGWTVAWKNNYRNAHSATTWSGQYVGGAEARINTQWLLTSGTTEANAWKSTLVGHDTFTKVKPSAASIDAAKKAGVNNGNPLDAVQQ", "test": "localized surface plasmon resonance on graphene-oxide optical waveguide, affinity constant from ka/kd", "assay_type": "binding", "conditions": "read-out: Kf (converted)", "excerpt": "localized surface plasmon resonance on graphene-oxide optical waveguide, affinity constant from ka/kd on streptavidin | ka and kd of biotin binding with streptavidin were estimated to be", "note": "Structures can show the parent of a compound that is named as a salt."}
{"smiles": "NCCCNC(=O)CCCC[C@@H]1SC[C@@H]2NC(=O)N[C@@H]21", "note": "[N-(+)-biotinyl-3-aminopropylammonium trifluoroacetate]", "values": [{"measurement": "Kd", "value": 137, "unit": "pM"}]}
